Source: patent US10799507B2, “5-(7H-pyrrolo[2,3-d]pyrimidin-4-yl)-5-azaspiro[2.5]octane-8-carboxylic acid derivatives as novel JAK kinase inhibitors” (LEO Pharma A/S, priority 2017, dated 2020)

How the values were obtained:
[1] = molecular target: JAK1 (Homo sapiens (Human), UniProt P23458); test: JAK kinase assay (HTRF), JAK1; assay type: biochemical; settings: catalytic domain, ATP at Km (7 μM)
How it was run: (§1)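 Catalytic-domain human JAK1 (GST-tagged, aa 850-1154) or His-tagged JAK2, baculovirus-expressed, phosphorylated 1 µM biotinylated TK peptide at Km ATP (JAK1 7 µM, 10 mM MgCl2, 50 nM SEB; JAK2 4 µM, 5 mM MgCl2) in pH 7.0 Hepes, 20-30 min RT. EDTA stop; overnight streptavidin-XL665/cryptate HTRF read.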

[2] = molecular target: JAK2 (Homo sapiens (Human), UniProt O60674); test: JAK kinase assay (HTRF), JAK2; assay type: biochemical; settings: catalytic domain, ATP at Km (4 μM)
Chain of JAK2 (O60674 849-1124): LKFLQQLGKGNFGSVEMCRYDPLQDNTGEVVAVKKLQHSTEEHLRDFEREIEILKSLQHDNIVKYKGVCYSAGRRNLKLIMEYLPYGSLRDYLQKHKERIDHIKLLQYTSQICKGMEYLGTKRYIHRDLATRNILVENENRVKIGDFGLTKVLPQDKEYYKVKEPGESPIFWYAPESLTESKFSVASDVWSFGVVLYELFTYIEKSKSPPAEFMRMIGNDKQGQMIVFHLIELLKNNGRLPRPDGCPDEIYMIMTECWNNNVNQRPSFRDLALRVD
How it was run: as §1

[3] = molecular target: JAK3 (Homo sapiens (Human), UniProt P52333); test: JAK kinase assay (HTRF), JAK3; assay type: biochemical; settings: catalytic domain, ATP at Km (2 μM)
Chain of JAK3 (P52333 822-1111): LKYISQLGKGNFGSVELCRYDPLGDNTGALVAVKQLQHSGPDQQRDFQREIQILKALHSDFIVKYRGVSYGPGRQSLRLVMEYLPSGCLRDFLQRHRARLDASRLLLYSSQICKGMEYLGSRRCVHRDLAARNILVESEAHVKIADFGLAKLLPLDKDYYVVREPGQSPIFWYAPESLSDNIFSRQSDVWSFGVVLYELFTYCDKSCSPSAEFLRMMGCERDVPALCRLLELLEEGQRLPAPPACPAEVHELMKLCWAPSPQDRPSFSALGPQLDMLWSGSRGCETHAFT
How it was run: (§2)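 HTRF read-out of biotinylated TK peptide phosphorylation (1 μM) after a 20-30 min RT reaction in pH 7.0 Hepes buffer with 5 mM MgCl2 and 0.75% DMSO. JAK3 (His-tagged catalytic domain) used 2 μM ATP; TYK2 (GST-tagged, aa 871-1187) used 13 μM ATP plus 50 nM SEB, each at ATP Km.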

[4] = molecular target: TYK2 (Homo sapiens (Human), UniProt P29597); test: JAK kinase assay (HTRF), TYK2; assay type: biochemical; settings: catalytic domain, ATP at Km (13 μM)
Chain of TYK2 (P29597 871-1187): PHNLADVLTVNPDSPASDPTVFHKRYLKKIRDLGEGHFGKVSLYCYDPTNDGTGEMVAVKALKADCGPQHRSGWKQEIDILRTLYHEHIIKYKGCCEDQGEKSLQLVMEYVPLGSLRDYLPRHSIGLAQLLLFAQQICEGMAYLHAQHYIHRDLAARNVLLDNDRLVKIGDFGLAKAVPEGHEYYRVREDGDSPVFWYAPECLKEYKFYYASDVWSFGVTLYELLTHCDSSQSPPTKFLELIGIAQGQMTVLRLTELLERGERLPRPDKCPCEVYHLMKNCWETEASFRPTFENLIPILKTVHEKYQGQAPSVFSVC
How it was run: as §2

[5] = in vitro metabolic stability in human liver microsomes; assay type: in vitro ADME; settings: human, liver microsomes, 0.5 μM compound, 0.5 mg/mL microsomes, NADPH, 40 min, 37° C.; read-out: Human liver microsome Clapp (apparent intrinsic clearance)
How it was run: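 Compounds at 0.5 μM incubated in duplicate with human liver microsomes (0.5 mg/mL), phosphate buffer and NADPH at 37 °C for 40 min, sampled at 0, 5, 10, 20, 40 min into cold acetonitrile. LC-TOF-MS depletion gave elimination rate constant, from which apparent intrinsic clearance (Clapp) was calculated.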

Chain of JAK1 (P23458 850-1154): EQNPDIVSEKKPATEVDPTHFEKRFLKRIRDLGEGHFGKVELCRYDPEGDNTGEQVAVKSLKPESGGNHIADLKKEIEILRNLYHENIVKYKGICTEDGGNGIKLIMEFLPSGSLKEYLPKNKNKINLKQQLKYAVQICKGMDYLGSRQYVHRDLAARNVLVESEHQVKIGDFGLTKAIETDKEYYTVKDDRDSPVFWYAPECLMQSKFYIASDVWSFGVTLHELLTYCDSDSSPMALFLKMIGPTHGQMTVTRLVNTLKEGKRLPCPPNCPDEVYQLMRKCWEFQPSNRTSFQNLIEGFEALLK

Molecule `O=C(OCC1CC(F)(F)C1)[C@@H]1CCN(c2ncnc3[nH]ccc23)CC12CC2` [Example 155, (3,3-difluorocyclobutyl)methyl (8R)-5-(7H-pyrrolo[2,3-d]pyrimidin-4-yl)-5-azaspiro[2.5]octane-8-carboxylate] has an EC50 [1] of 30 nM, an EC50 [2] of 58 nM and an EC50 [3] of 144 nM. It also gave an EC50 [4] of 1280 nM and a CLint scaled at 0.5 μM [5] greater than 200 mL/min/kg.
